{
  "source": "paper PMC3914206",
  "key": {"panel of 442 kinases [1]": {"molecular_target": "T1, panel of 442 kinases (Homo sapiens, UniProt O60285)", "T1 construct": "purchased KINOMEscan", "T1 sequence (O60285 1-661)": "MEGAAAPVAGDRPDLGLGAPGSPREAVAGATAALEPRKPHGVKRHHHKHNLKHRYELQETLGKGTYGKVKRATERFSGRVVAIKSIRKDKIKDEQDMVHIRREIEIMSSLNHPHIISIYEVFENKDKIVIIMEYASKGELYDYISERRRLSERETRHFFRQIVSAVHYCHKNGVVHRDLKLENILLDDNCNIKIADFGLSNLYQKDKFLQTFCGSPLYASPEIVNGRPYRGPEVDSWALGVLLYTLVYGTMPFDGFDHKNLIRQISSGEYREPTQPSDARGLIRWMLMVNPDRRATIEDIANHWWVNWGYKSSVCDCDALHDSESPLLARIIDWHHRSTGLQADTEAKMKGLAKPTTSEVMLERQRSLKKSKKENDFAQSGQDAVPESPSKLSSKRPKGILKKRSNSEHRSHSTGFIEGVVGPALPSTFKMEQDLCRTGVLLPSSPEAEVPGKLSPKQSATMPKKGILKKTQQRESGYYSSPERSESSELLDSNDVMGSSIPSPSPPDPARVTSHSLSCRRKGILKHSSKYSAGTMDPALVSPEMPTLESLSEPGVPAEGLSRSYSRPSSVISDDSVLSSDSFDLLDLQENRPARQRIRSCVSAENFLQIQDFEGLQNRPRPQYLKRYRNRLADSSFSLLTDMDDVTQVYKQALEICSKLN", "format": "binding", "parameters": "KINOMEscan: ABL1(F317L)-phosphorylated / KINOMEscan: ABL1(H396P)-nonphosphorylated / KINOMEscan: ABL1(H396P)-phosphorylated / KINOMEscan: ABL1(M351T)-phosphorylated / KINOMEscan: ABL1(T315I)-phosphorylated / KINOMEscan: ABL1-nonphosphorylated / KINOMEscan: ABL1-phosphorylated / KINOMEscan: ACVR2A / KINOMEscan: ACVR2B / KINOMEscan: ADCK3 / KINOMEscan: ADCK4 / KINOMEscan: AKT1 / KINOMEscan: AKT3 / KINOMEscan: ALK / KINOMEscan: ARK5 / KINOMEscan: AURKA / KINOMEscan: AURKC / KINOMEscan: BIKE / KINOMEscan: BMPR1A / KINOMEscan: BMPR1B / KINOMEscan: BMX / KINOMEscan: BRK / KINOMEscan: BRSK1 / KINOMEscan: BRSK2 / KINOMEscan: CAMK1 / KINOMEscan: CAMK1D / KINOMEscan: CAMK1G / KINOMEscan: CAMK2A / KINOMEscan: CAMK2B / KINOMEscan: AAK1 / KINOMEscan: CAMK2D / KINOMEscan: CAMK2G / KINOMEscan: ABL1(F317I)-nonphosphorylated / KINOMEscan: ABL1(F317I)-phosphorylated / KINOMEscan: ABL1(F317L)-nonphosphorylated: unit: % Ctrl", "settings": "Compound Concentration 10 µM", "description": "(§1) We assessed the selectivity of members of this scaffold using the KINOMEscan methodology across a near comprehensive panel of 442 kinases [[18,27]]."}, "panel of 442 kinases [2]": {"molecular_target": "T2, panel of 442 kinases (Homo sapiens, UniProt P00533, G719S)", "T2 construct": "purchased KINOMEscan", "T2 sequence (P00533 25-1210 G719S)": "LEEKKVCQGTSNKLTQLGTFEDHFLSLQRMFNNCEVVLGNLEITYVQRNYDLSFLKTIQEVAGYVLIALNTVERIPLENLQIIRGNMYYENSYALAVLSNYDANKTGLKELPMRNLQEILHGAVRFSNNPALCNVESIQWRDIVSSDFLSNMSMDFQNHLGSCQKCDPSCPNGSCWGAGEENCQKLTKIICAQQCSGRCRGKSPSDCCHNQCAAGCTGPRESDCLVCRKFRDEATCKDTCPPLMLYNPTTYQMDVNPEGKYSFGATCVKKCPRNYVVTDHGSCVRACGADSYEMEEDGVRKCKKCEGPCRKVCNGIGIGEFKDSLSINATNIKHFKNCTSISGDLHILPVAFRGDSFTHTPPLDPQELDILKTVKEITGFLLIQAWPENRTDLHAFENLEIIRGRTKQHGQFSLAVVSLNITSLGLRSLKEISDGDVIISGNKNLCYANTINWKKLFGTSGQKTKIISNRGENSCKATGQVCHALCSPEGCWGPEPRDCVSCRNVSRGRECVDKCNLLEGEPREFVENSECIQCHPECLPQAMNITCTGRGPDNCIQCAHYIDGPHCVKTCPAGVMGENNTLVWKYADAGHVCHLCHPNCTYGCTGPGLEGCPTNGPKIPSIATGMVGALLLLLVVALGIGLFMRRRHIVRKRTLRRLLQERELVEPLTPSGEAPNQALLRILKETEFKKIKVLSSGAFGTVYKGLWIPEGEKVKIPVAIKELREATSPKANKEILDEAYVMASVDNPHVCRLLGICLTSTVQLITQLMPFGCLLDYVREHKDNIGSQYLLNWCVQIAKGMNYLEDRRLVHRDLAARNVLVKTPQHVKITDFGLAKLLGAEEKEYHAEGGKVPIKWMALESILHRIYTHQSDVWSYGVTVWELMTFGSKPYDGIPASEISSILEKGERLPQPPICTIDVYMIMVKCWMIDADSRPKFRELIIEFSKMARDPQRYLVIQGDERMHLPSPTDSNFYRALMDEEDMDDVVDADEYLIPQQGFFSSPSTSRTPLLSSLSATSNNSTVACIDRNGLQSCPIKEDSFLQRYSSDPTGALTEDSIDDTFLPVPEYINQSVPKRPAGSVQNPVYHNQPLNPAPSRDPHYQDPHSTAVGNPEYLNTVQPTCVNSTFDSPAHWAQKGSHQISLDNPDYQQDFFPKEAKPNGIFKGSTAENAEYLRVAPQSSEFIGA", "format": "binding", "parameters": "KINOMEscan: ABL1(F317L)-phosphorylated / KINOMEscan: ABL1(H396P)-nonphosphorylated / KINOMEscan: ABL1(H396P)-phosphorylated / KINOMEscan: ABL1(M351T)-phosphorylated / KINOMEscan: ABL1(T315I)-phosphorylated / KINOMEscan: ABL1-nonphosphorylated / KINOMEscan: ABL1-phosphorylated / KINOMEscan: ACVR2A / KINOMEscan: ACVR2B / KINOMEscan: ADCK3 / KINOMEscan: ADCK4 / KINOMEscan: AKT1 / KINOMEscan: AKT3 / KINOMEscan: ALK / KINOMEscan: ARK5 / KINOMEscan: AURKA / KINOMEscan: AURKC / KINOMEscan: BIKE / KINOMEscan: BMPR1A / KINOMEscan: BMPR1B / KINOMEscan: BMX / KINOMEscan: BRK / KINOMEscan: BRSK1 / KINOMEscan: BRSK2 / KINOMEscan: CAMK1 / KINOMEscan: CAMK1D / KINOMEscan: CAMK1G / KINOMEscan: CAMK2A / KINOMEscan: CAMK2B / KINOMEscan: AAK1 / KINOMEscan: CAMK2D / KINOMEscan: CAMK2G / KINOMEscan: ABL1(F317I)-nonphosphorylated / KINOMEscan: ABL1(F317I)-phosphorylated / KINOMEscan: ABL1(F317L)-nonphosphorylated: unit: % Ctrl", "settings": "Compound Concentration 10 µM", "description": "as §1"}},
  "data": [
    {"smiles": "COc1cc(C(=O)N2CCC(N3CCN(C)CC3)CC2)ccc1Nc1ncc2c(n1)N(C)c1ccccc1C(=O)N2C", "note": "[15 (LRRK2-IN-1)]", "values": [
      {"measurement": "KINOMEscan: ARK5", "setting": "panel of 442 kinases [1]", "result": 47},
      {"measurement": "KINOMEscan: EGFR(G719S)", "setting": "panel of 442 kinases [2]", "result": 86}
    ]},
    {"smiles": "COc1cc(C(=O)N2CCC(N3CCN(C)CC3)CC2)ccc1Nc1ncc2c(n1)N1CCc3cccc(c31)C(=O)N2C", "note": "[Compound 24]", "values": [
      {"measurement": "KINOMEscan: ARK5", "setting": "panel of 442 kinases [1]", "result": 68},
      {"measurement": "KINOMEscan: EGFR(G719S)", "setting": "panel of 442 kinases [2]", "result": 81}
    ]},
    {"smiles": "COc1cc(C(=O)N2CCC(N3CCN(C)CC3)CC2)ccc1Nc1ncc2c(n1)N(C1CCCC1)c1ccccc1C(=O)N2C", "note": "[Compound 25, 11-cyclopentyl-2-((2-methoxy-4-(4-(4-methylpiperazin-1-yl)piperidine-1-carbonyl)phenyl)amino)-5-methyl-5H-benzo[e]pyrimido[5,4-b][1,4]diazepin-6(11H)-one]", "values": [
      {"measurement": "KINOMEscan: ARK5", "setting": "panel of 442 kinases [1]", "result": 90},
      {"measurement": "KINOMEscan: EGFR(G719S)", "setting": "panel of 442 kinases [2]", "result": 86}
    ]},
    {"smiles": "CCOc1cc(C(=O)N2CCC(N3CCN(C)CC3)CC2)ccc1Nc1ncc2c(n1)N(C1CCCC1)c1ccccc1C(=O)N2C", "note": "[Compound 26]", "values": [
      {"measurement": "KINOMEscan: ARK5", "setting": "panel of 442 kinases [1]", "result": 100},
      {"measurement": "KINOMEscan: EGFR(G719S)", "setting": "panel of 442 kinases [2]", "result": 96}
    ]}
  ]
}
